“And” between values parts separate entries of the source, which are not always exact repeats. Identical values can stand only once. Like-named read-outs stand apart in the source and are kept apart here.
Test: Mouse pharmacokinetics in CD-1 mice (blood, kidney, liver, lung)
Format: in vivo
Method: For the PK study, a total of 42 male CD-1 mice weighing ~20-35 g were acquired from Lingchang/Vital River Laboratory Animal Co., Ltd. (Shanghai/Beijing, P.R. China) and divided into 2 treatment groups. […] was dosed with one low dose (1 mg/kg) and one high dose group (20 mg/kg). For the low-dose groups, nine animals were required for organ quantification with termination at 24 hours. For the high-dose groups, 12 animals were required for organ quantification with termination at 48 hours. The animal was administered either 1 mg/kg or 20 mg/kg of formulation solution (10% HP-β-CD in acetate buffer at pH 4.0) by IV bolus through the left lateral tail vein injection. […] Blood samples were placed on wet ice, mixed, then frozen and stored in a freezer set to -60 °C or lower until analysis. After the blood samples were collected at the terminal time points, the animals were sacrificed, and the liver, lung and kidney were harvested. The tissues were rinsed in cold water and then blotted on filter papers, weighed and homogenized using pre-cooled water at the ratio of 1:4. The tissue homogenate samples were kept at -70 °C until analysis. […] Working standard solutions were spiked into 25 μL of blank matrix on the sample plate. […] The supernatant (20 μL) was transferred into the MS injection plate, then diluted with water before injection for LC-MS/MS analysis. The concentrations of […] were quantified by an LC-MS/MS method. The LC-MS/MS system was a Waters Acquity UPLC System (Milford, MA) coupled to a Sciex Triple Quad 6500 Plus mass spectrometer (AB Sciex, Foster City, CA). The aqueous mobile phase for the analysis was 0.1% formic acid and 2 mM ammonium formate in water/ACN (v:v, 95:5) (A), and the organic mobile phase was 0.1% formic acid and 2 mM ammonium formate in ACN/water (v:v, 95:5) (B). […] Column temperature was set at 50 °C. […] The flow rate was set at 0.7 mL/min. […] The lower limit of quantitation in all matrices was 5.1 ng/mL. The mean time concentration profile was generated for each group, and an overall AUC was then calculated with these sparse samples of rats and mice. […] The following parameters were estimated whenever possible: C0, Back-extrapolated concentration at time 0; Cmax, Maximum observed concentration; Tmax, Time of maximum observed concentration; AUC0-t, Area under the concentration-time curve from hour 0 to the last measurable concentration, estimated by the linear trapezoidal rule; AUC0-336, Area under the concentration-time curve from hour 0 to hour 336, estimated by the linear trapezoidal rule; DN AUC0-336, Dose normalized AUC0-336, calculated as AUC0-336/dose level; […] AUC0-∞ = AUC0-t + Ct/λz, where Ct is the last measurable concentration and λz is the elimination rate constant; t1/2, Elimination half-life, determined by ln(2)/λz; CL, Clearance, calculated as dose/AUC0-inf; Vd, Volume of distribution based on the terminal phase, calculated as: dose/(λz × AUC0-∞) Nominal doses and sampling times were used. […] Embedded zeros were excluded from kinetic analysis.

Cc1ncsc1-c1ccc(C(C)NC(=O)C2CC(O)CN2C(=O)C(c2cc(N3CCC(CN4CCC(OC5CC(Oc6cc(N7C8CCC7CN(c7cc(-c9ccccc9O)nnc7N)C8)ccn6)C5)CC4)CC3)no2)C(C)C)cc1 (stereo not shown) [A947]
concentration at 0.083 h (Blood, 0.083 h, 1 mg/kg IV, individual animals, read-out: Concentration (µM) from 1 mg/kg Dosing Blood): 0.351 µM and 0.406 µM | concentration at 8 h (Blood, 0.083 h, 20 mg/kg IV, individual animals, read-out: Concentration (µM) from 20 mg/kg Dosing Blood): 11.332 µM and 8.845 µM | concentration at 0.083 h (Blood, 0.25 h, 1 mg/kg IV, individual animals, read-out: Concentration (µM) from 1 mg/kg Dosing Blood): 0.084 µM and 0.113 µM | concentration at 8 h (Blood, 0.25 h, 20 mg/kg IV, individual animals, read-out: Concentration (µM) from 20 mg/kg Dosing Blood): 3.265 µM and 3.4 µM | concentration at 0.083 h (Blood, 0.5 h, 1 mg/kg IV, individual animals, read-out: Concentration (µM) from 1 mg/kg Dosing Blood): 0.044 µM and 0.066 µM | concentration at 8 h (Blood, 0.5 h, 20 mg/kg IV, individual animals, read-out: Concentration (µM) from 20 mg/kg Dosing Blood): 1.604 µM and 1.652 µM | concentration at 0.083 h (Blood, 1 h, 1 mg/kg IV, individual animals, read-out: Concentration (µM) from 1 mg/kg Dosing Blood): 0.02 µM and 0.026 µM | concentration at 8 h (Blood, 1 h, 20 mg/kg IV, individual animals, read-out: Concentration (µM) from 20 mg/kg Dosing Blood): 0.769 µM and 0.821 µM | concentration at 0.083 h (Blood, 2 h, 1 mg/kg IV, individual animals, read-out: Concentration (µM) from 1 mg/kg Dosing Blood): 0.009 µM and 0.013 µM | concentration at 8 h (Blood, 2 h, 20 mg/kg IV, individual animals, read-out: Concentration (µM) from 20 mg/kg Dosing Blood): 0.221 µM and 0.24 µM | Concentration (µM) from 1 mg/kg Dosing Blood (Blood, 4 h, 1 mg/kg IV, individual animals, BLOQ <5.1 ng/mL): BLOQ * | concentration at 0.083 h (Blood, 4 h, 1 mg/kg IV, individual animals, BLOQ <5.1 ng/mL, read-out: Concentration (µM) from 1 mg/kg Dosing Blood): 0.006 µM | concentration at 8 h (Blood, 4 h, 20 mg/kg IV, individual animals, read-out: Concentration (µM) from 20 mg/kg Dosing Blood): 0.212 µM and 0.306 µM and 0.093 µM and 0.117 µM and 0.098 µM and 0.1 µM | Concentration (µM) from 1 mg/kg Dosing Blood (Blood, 8 h, 1 mg/kg IV, individual animals, BLOQ <5.1 ng/mL): BLOQ * | concentration at 8 h (Blood, 8 h, 20 mg/kg IV, individual animals, read-out: Concentration (µM) from 20 mg/kg Dosing Blood): 0.067 µM and 0.056 µM and 0.036 µM and 0.037 µM | Concentration (µM) from 1 mg/kg Dosing Blood (Blood, 12 h, 1 mg/kg IV, individual animals, BLOQ <5.1 ng/mL): BLOQ * | concentration at 8 h (Blood, 12 h, 20 mg/kg IV, individual animals, read-out: Concentration (µM) from 20 mg/kg Dosing Blood): 0.015 µM and 0.017 µM | Concentration (µM) from 1 mg/kg Dosing Blood (Blood, 24 h, 1 mg/kg IV, individual animals, BLOQ <5.1 ng/mL): BLOQ * | Concentration (µM) from 20 mg/kg Dosing Blood (Blood, 24 h, 20 mg/kg IV, individual animals, BLOQ <5.1 ng/mL): BLOQ * | Concentration (µM) from 20 mg/kg Dosing Blood (Blood, 48 h, 20 mg/kg IV, individual animals, BLOQ <5.1 ng/mL): BLOQ * | concentration at 24 h (Kidney, 4 h, 1 mg/kg IV, individual animals, read-out: Concentration (µM) from 1 mg/kg Dosing Kidney): 0.541 µM and 0.391 µM | concentration at 8 h (Kidney, 4 h, 20 mg/kg IV, individual animals, read-out: Concentration (µM) from 20 mg/kg Dosing Kidney): 14.213 µM and 10.852 µM | concentration at 24 h (Kidney, 8 h, 1 mg/kg IV, individual animals, read-out: Concentration (µM) from 1 mg/kg Dosing Kidney): 0.341 µM and 0.338 µM | concentration at 8 h (Kidney, 8 h, 20 mg/kg IV, individual animals, read-out: Concentration (µM) from 20 mg/kg Dosing Kidney): 11.428 µM and 7.712 µM | concentration at 24 h (Kidney, 24 h, 1 mg/kg IV, individual animals, read-out: Concentration (µM) from 1 mg/kg Dosing Kidney): 0.025 µM and 0.027 µM | concentration at 8 h (Kidney, 24 h, 20 mg/kg IV, individual animals, read-out: Concentration (µM) from 20 mg/kg Dosing Kidney): 0.295 µM and 0.508 µM | concentration at 8 h (Kidney, 48 h, 20 mg/kg IV, individual animals, read-out: Concentration (µM) from 20 mg/kg Dosing Kidney): 0.083 µM and 0.066 µM | concentration at 24 h (Liver, 4 h, 1 mg/kg IV, individual animals, read-out: Concentration (µM) from 1 mg/kg Dosing Liver): 0.069 µM and 0.098 µM | concentration at 8 h (Liver, 4 h, 20 mg/kg IV, individual animals, read-out: Concentration (µM) from 20 mg/kg Dosing Liver): 66.456 µM and 51.09 µM and 27.754 µM | concentration at 24 h (Liver, 8 h, 1 mg/kg IV, individual animals, read-out: Concentration (µM) from 1 mg/kg Dosing Liver): 0.039 µM | concentration at 8 h (Liver, 8 h, 20 mg/kg IV, individual animals, read-out: Concentration (µM) from 20 mg/kg Dosing Liver): 18.535 µM and 24.009 µM | Concentration (µM) from 1 mg/kg Dosing Liver (Liver, 24 h, 1 mg/kg IV, individual animals, BLOQ <5.1 ng/mL): BLOQ * | concentration at 8 h (Liver, 24 h, 20 mg/kg IV, individual animals, read-out: Concentration (µM) from 20 mg/kg Dosing Liver): 8.297 µM and 9.7 µM | concentration at 8 h (Liver, 48 h, 20 mg/kg IV, individual animals, read-out: Concentration (µM) from 20 mg/kg Dosing Liver): 1.133 µM and 2.43 µM and 2.132 µM | concentration at 24 h (Lung, 4 h, 1 mg/kg IV, individual animals, read-out: Concentration (µM) from 1 mg/kg Dosing Lung): 0.085 µM and 0.099 µM | concentration at 8 h (Lung, 4 h, 20 mg/kg IV, individual animals, read-out: Concentration (µM) from 20 mg/kg Dosing Lung): 6.463 µM and 5.695 µM | concentration at 24 h (Lung, 8 h, 1 mg/kg IV, individual animals, read-out: Concentration (µM) from 1 mg/kg Dosing Lung): 0.066 µM and 0.071 µM | concentration at 8 h (Lung, 8 h, 20 mg/kg IV, individual animals, read-out: Concentration (µM) from 20 mg/kg Dosing Lung): 2.286 µM and 3.054 µM | concentration at 24 h (Lung, 24 h, 1 mg/kg IV, individual animals, read-out: Concentration (µM) from 1 mg/kg Dosing Lung): 0.011 µM and 0.016 µM | concentration at 8 h (Lung, 24 h, 20 mg/kg IV, individual animals, read-out: Concentration (µM) from 20 mg/kg Dosing Lung): 0.718 µM and 0.295 µM and 0.794 µM | concentration at 8 h (Lung, 48 h, 20 mg/kg IV, individual animals, read-out: Concentration (µM) from 20 mg/kg Dosing Lung): 0.36 µM and 0.211 µM and 1.402 µM | half-life (male, CD-1, mouse, blood and tissues (kidney, liver, lung), iv, CD-1 mice IV, dose = c0, matrix = c1 of the line): 10 to 15 h | concentration at 0.25 h (male, CD-1, mouse, blood, intravenous, 1 mg/kg, Blood, 0.25 h, 1 mg/kg IV, individual animals, read-out: Concentration (µM) from 1 mg/kg Dosing Blood): 0.089 µM | concentration at 0.25 h (male, CD-1, mouse, blood, intravenous, 1 mg/kg, Blood, 0.25 h, 1 mg/kg IV, mean, read-out: Concentration (µM) from 1 mg/kg Dosing Blood): 0.095 µM | concentration at 0.5 h (male, CD-1, mouse, blood, intravenous, 1 mg/kg, Blood, 0.5 h, 1 mg/kg IV, individual animals, read-out: Concentration (µM) from 1 mg/kg Dosing Blood): 0.055 µM | concentration at 0.5 h (male, CD-1, mouse, blood, intravenous, 1 mg/kg, Blood, 0.5 h, 1 mg/kg IV, mean, read-out: Concentration (µM) from 1 mg/kg Dosing Blood): 0.055 µM | concentration at 1 h (male, CD-1, mouse, blood, intravenous, 1 mg/kg, Blood, 1 h, 1 mg/kg IV, individual animals, read-out: Concentration (µM) from 1 mg/kg Dosing Blood): 0.027 µM | concentration at 1 h (male, CD-1, mouse, blood, intravenous, 1 mg/kg, Blood, 1 h, 1 mg/kg IV, mean, read-out: Concentration (µM) from 1 mg/kg Dosing Blood): 0.024 µM | concentration at 2 h (male, CD-1, mouse, blood, intravenous, 1 mg/kg, Blood, 2 h, 1 mg/kg IV, individual animals, read-out: Concentration (µM) from 1 mg/kg Dosing Blood): 0.012 µM | concentration at 2 h (male, CD-1, mouse, blood, intravenous, 1 mg/kg, Blood, 2 h, 1 mg/kg IV, mean, read-out: Concentration (µM) from 1 mg/kg Dosing Blood): 0.011 µM | concentration at 12 h (male, CD-1, mouse, blood, intravenous, 20 mg/kg, Blood, 12 h, 20 mg/kg IV, individual animals, read-out: Concentration (µM) from 20 mg/kg Dosing Blood): 0.019 µM | concentration at 12 h (male, CD-1, mouse, blood, intravenous, 20 mg/kg, Blood, 12 h, 20 mg/kg IV, mean, read-out: Concentration (µM) from 20 mg/kg Dosing Blood): 0.017 µM | concentration at 24 h (male, CD-1, mouse, blood, intravenous, 20 mg/kg, Blood, 24 h, 20 mg/kg IV, individual animals, BLOQ <5.1 ng/mL, read-out: Concentration (µM) from 20 mg/kg Dosing Blood): 0.007 µM | concentration at 24 h (male, CD-1, mouse, blood, intravenous, 20 mg/kg, Blood, 24 h, 20 mg/kg IV, mean, read-out: Concentration (µM) from 20 mg/kg Dosing Blood): 0.007 µM | Vd (male, CD-1, mouse, blood, iv, CD-1 mice IV, dose = c0): 20 to 23 L/kg | concentration at 0.083 h (male, CD-1, mouse, in vivo, 1 mg/kg, Blood, 0.083 h, 1 mg/kg IV, individual animals, read-out: Concentration (µM) from 1 mg/kg Dosing Blood): 0.338 µM | concentration at 0.083 h (male, CD-1, mouse, in vivo, 1 mg/kg, Blood, 0.083 h, 1 mg/kg IV, mean, read-out: Concentration (µM) from 1 mg/kg Dosing Blood): 0.365 µM | concentration at 4 h (male, CD-1, mouse, in vivo, 1 mg/kg, Blood, 4 h, 1 mg/kg IV, individual animals, BLOQ <5.1 ng/mL, read-out: Concentration (µM) from 1 mg/kg Dosing Blood): 0.005 µM

Reference: publication PMC11099041, “Tissue distribution and retention drives efficacy of rapidly clearing VHL-based PROTACs” (Communications Medicine, 2024)
